Reference: patent US20240000872A1, “NOVEL BACTERIOPHAGE THAT LYSES ACINETOBACTER GENUS BACTERIA HAVING RESISTANCE TO ANTIBIOTICS” (priority 2020, published 2024)

System: Acinetobacter baumannii strains
Assay: Antibiotic susceptibility test (CLSI disk diffusion test method, read per CLSI 2016); further: key: ‘S’ means susceptible; ‘I’ means intermediate; ‘R’ means resistant
Type: cell-based

CN(C)c1ccc(O)c2c1C[C@H]1C[C@H]3[C@H](N(C)C)C(O)=C(C(N)=O)C(=O)[C@@]3(O)C(O)=C1C2=O [Minocycline, minocycline]
antibiotic susceptibility class (host strain YMC14/01/C29): S
antibiotic susceptibility class (host strain YMC14/01/IP122): S
antibiotic susceptibility class (host strain YMC14/01/L8): S
antibiotic susceptibility class (host strain YMC14/01/P31): S
antibiotic susceptibility class (host strain YMC14/01/P117): S
antibiotic susceptibility class (host strain YMC14/01/P224): S
antibiotic susceptibility class (host strain YMC14/01/P727): S
antibiotic susceptibility class (host strain YMC14/01/P728): S
antibiotic susceptibility class (host strain YMC14/01/R130): S
antibiotic susceptibility class (host strain YMC14/01/R160): I
antibiotic susceptibility class (host strain YMC14/01/R198): I
antibiotic susceptibility class (host strain YMC14/01/R257): I
antibiotic susceptibility class (host strain YMC14/01/R270): S
antibiotic susceptibility class (host strain YMC14/01/R324): S
antibiotic susceptibility class (host strain YMC14/01/R443): I
antibiotic susceptibility class (host strain YMC14/01/R451): R
antibiotic susceptibility class (host strain YMC14/01/R560): R
antibiotic susceptibility class (host strain YMC14/01/R617): R
antibiotic susceptibility class (host strain YMC14/01/R671): I
antibiotic susceptibility class (host strain YMC14/01/R732): S
antibiotic susceptibility class (host strain YMC14/01/R767): S
antibiotic susceptibility class (host strain YMC14/01/R904): I
antibiotic susceptibility class (host strain YMC14/01/R905): I
antibiotic susceptibility class (host strain YMC14/01/R921): S
antibiotic susceptibility class (host strain YMC14/01/R941): S
antibiotic susceptibility class (host strain YMC14/01/R958): S
antibiotic susceptibility class (host strain YMC14/01/R1006): S
antibiotic susceptibility class (host strain YMC14/01/R1199): S
antibiotic susceptibility class (host strain YMC14/01/R1659): S
antibiotic susceptibility class (host strain YMC14/01/R1722): S
antibiotic susceptibility class (host strain YMC14/01/R1752): S
antibiotic susceptibility class (host strain YMC14/01/R2429): S
antibiotic susceptibility class (host strain YMC14/01/R2572): S
antibiotic susceptibility class (host strain YMC14/01/R2855): S
antibiotic susceptibility class (host strain YMC14/01/R2945): S
antibiotic susceptibility class (host strain YMC14/01/R3007): S
antibiotic susceptibility class (host strain YMC14/01/R3129): S
antibiotic susceptibility class (host strain YMC14/01/R3317): S
antibiotic susceptibility class (host strain YMC14/01/R3474): S
antibiotic susceptibility class (host strain YMC14/01/R3574): S
antibiotic susceptibility class (host strain YMC14/01/U313): S
antibiotic susceptibility class (host strain YMC14/01/U318): I
antibiotic susceptibility class (host strain YMC14/02/L18): S
antibiotic susceptibility class (host strain YMC14/02/P47): S
antibiotic susceptibility class (host strain YMC14/02/R1860): S
antibiotic susceptibility class (host strain YMC14/02/R2417): S
antibiotic susceptibility class (host strain YMC14/02/R2599): S
antibiotic susceptibility class (host strain YMC14/02/R2668): S
antibiotic susceptibility class (host strain YMC14/02/R2758): S
antibiotic susceptibility class (host strain YMC14/02/R2781): S
antibiotic susceptibility class (host strain YMC14/02/R3106): S
antibiotic susceptibility class (host strain YMC14/02/R3419): S
antibiotic susceptibility class (host strain YMC14/02/U1607): S
antibiotic susceptibility class (host strain YMC14/03/L9): S
antibiotic susceptibility class (host strain YMC14/03/P471): S
antibiotic susceptibility class (host strain YMC14/03/R122): S
antibiotic susceptibility class (host strain YMC14/03/R217): S
antibiotic susceptibility class (host strain YMC14/03/R380): S
antibiotic susceptibility class (host strain YMC14/03/R618): S
antibiotic susceptibility class (host strain YMC14/03/R2144): S
antibiotic susceptibility class (host strain YMC14/03/U4616): S
antibiotic susceptibility class (host strain YMC14/04/R1078): S
antibiotic susceptibility class (host strain YMC14/04/R1080): S
antibiotic susceptibility S/I/R (host strain YMC14/06/R2359): S
susceptibility category (S/I/R) (host strain YMC14/06/R2359): S
antibiotic susceptibility S/I/R (host strain YMC14/08/R1169): S
susceptibility category (S/I/R) (host strain YMC14/08/R1169): S
antibiotic susceptibility S/I/R (host strain YMC14/08/T90): S
susceptibility category (S/I/R) (host strain YMC14/08/T90): S
antibiotic susceptibility S/I/R (host strain YMC15/02/R436): R
susceptibility category (S/I/R) (host strain YMC15/02/R436): R
antibiotic susceptibility S/I/R (host strain YMC15/02/T28): S
susceptibility category (S/I/R) (host strain YMC15/02/T28): S
antibiotic susceptibility S/I/R (host strain YMC15/03/R1604): S
susceptibility category (S/I/R) (host strain YMC15/03/R1604): S
antibiotic susceptibility S/I/R (host strain YMC15/09/R1869): S
susceptibility category (S/I/R) (host strain YMC15/09/R1869): S
antibiotic susceptibility S/I/R (host strain YMC16/01/P11): S
susceptibility category (S/I/R) (host strain YMC16/01/P11): S
antibiotic susceptibility S/I/R (host strain YMC16/01/R123): S
susceptibility category (S/I/R) (host strain YMC16/01/R123): S
antibiotic susceptibility S/I/R (host strain YMC16/01/R198): S
susceptibility category (S/I/R) (host strain YMC16/01/R198): S
antibiotic susceptibility S/I/R (host strain YMC16/01/R353): S
susceptibility category (S/I/R) (host strain YMC16/01/R353): S
antibiotic susceptibility S/I/R (host strain YMC16/01/R380): S
susceptibility category (S/I/R) (host strain YMC16/01/R380): S
antibiotic susceptibility S/I/R (host strain YMC16/01/R397): S
susceptibility category (S/I/R) (host strain YMC16/01/R397): S
antibiotic susceptibility S/I/R (host strain YMC16/01/R405): S
susceptibility category (S/I/R) (host strain YMC16/01/R405): S
antibiotic susceptibility S/I/R (host strain YMC16/03/R4461): S
susceptibility category (S/I/R) (host strain YMC16/03/R4461): S
antibiotic susceptibility S/I/R (host strain YMC16/05/R2210): S
susceptibility category (S/I/R) (host strain YMC16/05/R2210): S
antibiotic susceptibility S/I/R (host strain YMC16/07/R2512): S
susceptibility category (S/I/R) (host strain YMC16/07/R2512): S
antibiotic susceptibility S/I/R (host strain YMC16/09/R2471): S
susceptibility category (S/I/R) (host strain YMC16/09/R2471): S
antibiotic susceptibility S/I/R (host strain YMC16/10/R2537): S
susceptibility category (S/I/R) (host strain YMC16/10/R2537): S
antibiotic susceptibility S/I/R (host strain YMC16/12/B11422): S
susceptibility category (S/I/R) (host strain YMC16/12/B11422): S
antibiotic susceptibility S/I/R (host strain YMC16/12/B11449): S
susceptibility category (S/I/R) (host strain YMC16/12/B11449): S
antibiotic susceptibility S/I/R (host strain YMC16/12/B13325): S
susceptibility category (S/I/R) (host strain YMC16/12/B13325): S
antibiotic susceptibility S/I/R (host strain YMC16/12/P503): R
susceptibility category (S/I/R) (host strain YMC16/12/P503): R
antibiotic susceptibility S/I/R (host strain YMC16/12/R4637): R
susceptibility category (S/I/R) (host strain YMC16/12/R4637): R
antibiotic susceptibility S/I/R (host strain YMC17/01/B8053): S
susceptibility category (S/I/R) (host strain YMC17/01/B8053): S
antibiotic susceptibility S/I/R (host strain YMC17/01/B10087): S
susceptibility category (S/I/R) (host strain YMC17/01/B10087): S
antibiotic susceptibility S/I/R (host strain YMC17/01/B12075): S
susceptibility category (S/I/R) (host strain YMC17/01/B12075): S
antibiotic susceptibility S/I/R (host strain YMC17/01/B13454): S
susceptibility category (S/I/R) (host strain YMC17/01/B13454): S
antibiotic susceptibility S/I/R (host strain YMC17/01/P518): S
susceptibility category (S/I/R) (host strain YMC17/01/P518): S
antibiotic susceptibility S/I/R (host strain YMC17/01/R2812): R
susceptibility category (S/I/R) (host strain YMC17/01/R2812): R
susceptibility category (S/I/R) (host strain YMC17/02/B14): I
susceptibility category (S/I/R) (host strain YMC17/02/B87): I
antibiotic susceptibility S/I/R (host strain YMC17/02/B721): S
susceptibility category (S/I/R) (host strain YMC17/02/B721): S
antibiotic susceptibility S/I/R (host strain YMC17/02/B4039): S
susceptibility category (S/I/R) (host strain YMC17/02/B4039): S
antibiotic susceptibility S/I/R (host strain YMC17/02/B4520): S
susceptibility category (S/I/R) (host strain YMC17/02/B4520): S
antibiotic susceptibility S/I/R (host strain YMC17/02/B4864): S
susceptibility category (S/I/R) (host strain YMC17/02/B4864): S
antibiotic susceptibility S/I/R (host strain YMC17/02/B8414): S
susceptibility category (S/I/R) (host strain YMC17/02/B8414): S
antibiotic susceptibility S/I/R (host strain YMC17/02/P523): S
susceptibility category (S/I/R) (host strain YMC17/02/P523): S
antibiotic susceptibility S/I/R (host strain YMC17/02/R541): R
susceptibility category (S/I/R) (host strain YMC17/02/R541): R
antibiotic susceptibility S/I/R (host strain YMC17/02/R2392): S
susceptibility category (S/I/R) (host strain YMC17/02/R2392): S
antibiotic susceptibility S/I/R (host strain YMC17/03/B4730): S
susceptibility category (S/I/R) (host strain YMC17/03/B4730): S
susceptibility category (S/I/R) (host strain YMC17/03/B5000): I
antibiotic susceptibility S/I/R (host strain YMC17/03/P971): S
susceptibility category (S/I/R) (host strain YMC17/03/P971): S
antibiotic susceptibility S/I/R (host strain YMC17/03/R348): S
susceptibility category (S/I/R) (host strain YMC17/03/R348): S
antibiotic susceptibility S/I/R (host strain YMC17/03/R585): R
susceptibility category (S/I/R) (host strain YMC17/03/R585): R
antibiotic susceptibility S/I/R (host strain YMC17/03/R1888): S
susceptibility category (S/I/R) (host strain YMC17/03/R1888): S
antibiotic susceptibility S/I/R (host strain YMC17/03/R3279): S
susceptibility category (S/I/R) (host strain YMC17/03/R3279): S
antibiotic susceptibility S/I/R (host strain YMC17/03/R4077): S
susceptibility category (S/I/R) (host strain YMC17/03/R4077): S
antibiotic susceptibility S/I/R (host strain YMC17/03/R4607): R
susceptibility category (S/I/R) (host strain YMC17/03/R4607): R
antibiotic susceptibility S/I/R (host strain YMC17/04/R488): S
susceptibility category (S/I/R) (host strain YMC17/04/R488): S
antibiotic susceptibility S/I/R (host strain YMC17/04/R640): S
susceptibility category (S/I/R) (host strain YMC17/04/R640): S
antibiotic susceptibility S/I/R (host strain YMC/17/05/R1095): S
susceptibility category (S/I/R) (host strain YMC/17/05/R1095): S
